{
  "source": "PubChem BioAssay AID1259411",
  "about": "(Chemical Carcinogenesis Research Information System (CCRIS), 2018)",
  "tested_on": "rodent carcinogenicity bioassays, tumor incidence",
  "assay": "CCRIS carcinogenicity studies",
  "method_in_brief": "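Archive of carcinogenicity, mutagenicity, tumor promotion and tumor inhibition results drawn from journals, NCI reports and other sources, expert-reviewed; covers 1985-2011 and is no longer updated.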",
  "note": "Calls of active or inactive are those of the source. No rule for the calls is given here.",
  "data": [
    {"smiles": "[CH3][Hg][O]C(C)=O", "values": [
      {"measurement": "carcinogen call", "setting": "Species: MOUSE, Strain/Sex: SWISS/FEMALE, Route: ORAL, Dose: 0, 5 PPM (HG) IN DRINKING WATER FOR 70 D THEN 1 PPM (HG) FOR DURATION OF STUDY (STUDY DURATION: LIFE SPAN)", "result": "inactive; negative"},
      {"measurement": "carcinogen call", "setting": "Species: MOUSE, Strain/Sex: SWISS/MALE, Route: ORAL, Dose: 0, 5 PPM (HG) IN DRINKING WATER FOR 70 D THEN 1 PPM (HG) FOR DURATION OF STUDY (STUDY DURATION: LIFE SPAN)", "result": "inactive; negative"}
    ]},
    {"smiles": "CO[C@H]1/C=C/O[C@@]2(C)Oc3c(C)c(O)c4c(O)c(c(C=NN5CCN(C)CC5)c(O)c4c3C2=O)NC(=O)/C(C)=C\\C=C\\[C@H](C)[C@H](O)[C@@H](C)[C@@H](O)[C@@H](C)[C@H](OC(C)=O)[C@@H]1C", "values": [
      {"measurement": "carcinogen call", "setting": "Species: MOUSE, Strain/Sex: C3F/FEMALE, Route: ORAL, Dose: 0.01, 0.03 0.06% IN DRINKING WATER WITH 0.05% SODIUM ASCORBATE FOR 60 WK, Tumor Site: Type of Lesion: LIVER: BENIGN TUMOR OR MALIGNANT TUMOR", "result": "active; positive"}
    ]},
    {"smiles": "CCOc1ccc(NC(C)=O)cc1", "values": [
      {"measurement": "carcinogen call", "setting": "Species: MOUSE, Strain/Sex: B6C3F1/MALE, Route: ORAL, Dose: 0.6, 1.25% IN DIET, Tumor Site: Type of Lesion: KIDNEY: RENAL CELL ADENOMA, RENAL CELL CARCINOMA", "result": "active; positive"},
      {"measurement": "carcinogen call", "setting": "Species: RAT, Strain/Sex: SD/CSHI/MALE, Route: ORAL, Dose: 0, 2% IN DIET FOR 85 WK (STUDY DURATION: 85 WK), Tumor Site: Type of Lesion: RENAL PELVIS: CARCINOMA, PAPILLOMA, URINARY BLADDER: PAPILLOMA", "result": "active; positive"},
      {"measurement": "carcinogen call", "setting": "Species: RAT, Strain/Sex: SPRAGUE-DAWLEY/FEMALE, Route: ORAL, Dose: 1.25, 2.5% IN DIET FOR 18 MO, Tumor Site: Type of Lesion: NASAL CAVITY", "result": "active; positive"},
      {"measurement": "carcinogen call", "setting": "Species: RAT, Strain/Sex: SPRAGUE-DAWLEY/MALE, Route: ORAL, Dose: 0, 0.535% IN DIET FOR 117 WK, Tumor Site: Type of Lesion: KIDNEY, NASAL CAVITY: SQUAMOUS CELL CARCINOMA", "result": "active; positive"},
      {"measurement": "carcinogen call", "setting": "Species: RAT, Strain/Sex: SPRAGUE-DAWLEY/MALE, Route: ORAL, Dose: 1.25, 2.5% IN DIET FOR 18 MO, Tumor Site: Type of Lesion: NASAL CAVITY, URINARY TRACT", "result": "active; positive"}
    ]},
    {"smiles": "Cc1ccc2c(c1N)C(=O)c1ccccc1C2=O", "values": [
      {"measurement": "carcinogen call", "setting": "Species: MOUSE, Strain/Sex: B6C3F1/FEMALE, Route: ORAL, Dose: 0, 0.06% OF DIET (2 DOSAGE REGIMENS--A & B RECEIVING SAME CONC), TWA, Tumor Site: Type of Lesion: LIVER: HEPATOCELLULAR CARCINOMA, NEOPLASTIC NODULE", "result": "active; positive"},
      {"measurement": "carcinogen call", "setting": "Species: MOUSE, Strain/Sex: B6C3F1/MALE, Route: ORAL, Dose: 0, 0.06% OF DIET (2 DOSAGE REGIMENS--A & B RECEIVING SAME CONC), TWA", "result": "inactive; negative"},
      {"measurement": "carcinogen call", "setting": "Species: RAT, Strain/Sex: F344/FEMALE, Route: ORAL, Dose: 0, 0.10, 0.20% OF DIET, Dose: 0, 0.10, 0.20% OF DIET, Tumor Site: Type of Lesion: LIVER: HEPATOCELLULAR CARCINOMA, NEOPLASTIC NODULE", "result": "active; positive"},
      {"measurement": "carcinogen call", "setting": "Species: RAT, Strain/Sex: F344/MALE, Route: ORAL, Dose: 0, 0.10, 0.20% OF DIET, Dose: 0, 0.10, 0.20% OF DIET, Tumor Site: Type of Lesion: LIVER: HEPATOCELLULAR CARCINOMA, NEOPLASTIC NODULE, KIDNEY: TUBULAR CELL ADENOMA, TUBULAR CELL ADENOCARCINOMA, ADENOCARC", "result": "active; positive"}
    ]},
    {"smiles": "O.O=C([O-])c1ccccn1.O=C([O-])c1ccccn1.O=C([O-])c1ccccn1.[Cr+3]", "values": [
      {"measurement": "carcinogen call", "setting": "Species: Mouse, Strain/Sex: B6C3F1 /Female (50/Group), Route: Oral, Dose: 0, 2000, 10,000, 50,000 ppm (average daily doses of 0; 240; 1200; 6100 mg/kg) in diet for 105 wk, Dose: 0, 2000, 10,000, 50,000 ppm (average daily doses of 0; 240; 1200; 6100 mg/kg) in diet for 105 wk", "result": "inactive; negative"},
      {"measurement": "carcinogen call", "setting": "Species: Mouse, Strain/Sex: B6C3F1/Female (50/Group), Route: Oral, Dose: 0, 2,000, 10,000, 50,000 ppm in diet for 105 wk (Study duration: 105 wk), Dose: 0, 2,000, 10,000, 50,000 ppm in diet for 105 wk (Study duration: 105 wk)", "result": "inactive; negative"},
      {"measurement": "carcinogen call", "setting": "Species: Mouse, Strain/Sex: B6C3F1/Male (50/Group), Route: Oral, Dose: 0, 2000, 10,000, 50,000 ppm (average daily doses of 0; 250; 1200; 6565 mg/kg) in diet for 105 wk, Dose: 0, 2000, 10,000, 50,000 ppm (average daily doses of 0; 250; 1200; 6565 mg/kg) in diet for 105 wk", "result": "inactive; negative"},
      {"measurement": "carcinogen call", "setting": "Species: Mouse, Strain/Sex: B6C3F1/Male (50/Group), Route: Oral, Dose: 0, 2,000, 10,000, 50,000 ppm in diet for 105 wk (Study duration: 105 wk), Dose: 0, 2,000, 10,000, 50,000 ppm in diet for 105 wk (Study duration: 105 wk)", "result": "inactive; negative"},
      {"measurement": "carcinogen call", "setting": "Species: Rat, Strain/Sex: F344/N / Female (50/Group), Route: Oral, Dose: 0, 2000, 10,000, 50,000 ppm (average daily doses of 0; 100; 510; 2630 mg/kg) in diet for 105 wk, Dose: 0, 2000, 10,000, 50,000 ppm (average daily doses of 0; 100; 510; 2630 mg/kg) in diet for 105 wk", "result": "inactive; negative"},
      {"measurement": "carcinogen call", "setting": "Species: Rat, Strain/Sex: F344/N / Female (50/Group), Route: Oral, Dose: 0, 2,000, 10,000, 50,000 ppm in diet for 105 wk (Study duration: 105 wk), Dose: 0, 2,000, 10,000, 50,000 ppm in diet for 105 wk (Study duration: 105 wk)", "result": "inactive; negative"},
      {"measurement": "carcinogen call", "setting": "Species: Rat, Strain/Sex: F344/N / Male (50/Group), Route: Oral, Dose: 0, 2000, 10,000, 50,000 ppm (average daily doses of 0; 90; 460; 2400 mg/kg) in diet for 105 wk, Dose: 0, 2000, 10,000, 50,000 ppm (average daily doses of 0; 90; 460; 2400 mg/kg) in diet for 105 wk, Tumor Site: Type of Lesion: Preputial gland: adenoma (1/50, 1/50, 7/50, 4/50)", "result": "equivocal"},
      {"measurement": "carcinogen call", "setting": "Species: Rat, Strain/Sex: F344/N / Male (50/Group), Route: Oral, Dose: 0, 2,000, 10,000, 50,000 ppm in diet for 105 wk (Study duration: 105 wk), Dose: 0, 2,000, 10,000, 50,000 ppm in diet for 105 wk (Study duration: 105 wk), Tumor Site: Type of Lesion: Preputial gland: adenoma (1, 1, 7, 4; P</=0.05 at 10,000 ppm only)", "result": "inactive; negative. authors describe as equivocal evidence of carcinogenicity."}
    ]},
    {"smiles": "CC(=O)O[C@]1(C(C)=O)CC[C@H]2[C@@H]3C=C(Cl)C4=CC(=O)CC[C@]4(C)[C@H]3CC[C@@]21C", "values": [
      {"measurement": "carcinogen call", "setting": "Species: DOG, Route: ORAL, Tumor Site: Type of Lesion: MAMMARY GLAND", "result": "active; positive"}
    ]},
    {"smiles": "NNc1nc(-c2ccc([N+](=O)[O-])o2)cs1", "values": [
      {"measurement": "carcinogen call", "setting": "Species: RAT, Strain/Sex: SPRAGUE-DAWLEY/FEMALE, Route: ORAL, Dose: 0, 0.089% OF DIET FOR 46 WK FOLLOWED BY CONTROL DIET FOR 20 WK FOR A TOTAL DOSE OF 0, 4.2 G (STUDY DURATION: 66 WK), Dose: 0, 0.089% OF DIET FOR 46 WK FOLLOWED BY CONTROL DIET FOR 20 WK FOR A TOTAL DOSE OF 0, 4.2 G (STUDY DURATION: 66 WK), Tumor Site: Type of Lesion: MAMMARY GLAND: ADENOCARCINOMA, MAMMARY GLAND: ADENOFIBROMA OR FIBROADENOMA", "result": "active; positive"}
    ]},
    {"smiles": "CC(C)OC(=O)Nc1cccc(Cl)c1", "values": [
      {"measurement": "carcinogen call", "setting": "Species: Mouse, Strain/Sex: CD-1/Female (50/group), Route: Oral, Dose: 0, 100, 500, 1,000 mg/kg/day in diet for 18 mo, Dose: 0, 100, 500, 1,000 mg/kg/day in diet for 18 mo", "result": "inactive; negative (study details not given in source; purity 96.2%)"},
      {"measurement": "carcinogen call", "setting": "Species: Mouse, Strain/Sex: CD-1/Male (50/group), Route: Oral, Dose: 0, 100, 500, 1,000 mg/kg/day in diet for 18 mo, Dose: 0, 100, 500, 1,000 mg/kg/day in diet for 18 mo", "result": "inactive; negative (study details not given in source; purity 96.2%)"},
      {"measurement": "carcinogen call", "setting": "Species: Rat, Strain/Sex: Sprague-Dawley/Female (50/group), Route: Oral, Dose: 0, 30, 100, 500, 1,000 mg/kg/day in diet for 24 mo, Dose: 0, 30, 100, 500, 1,000 mg/kg/day in diet for 24 mo", "result": "inactive; negative (study details not given in source; purity 96.2%)"},
      {"measurement": "carcinogen call", "setting": "Species: Rat, Strain/Sex: Sprague-Dawley/Male (50/group), Route: Oral, Dose: 0, 30, 100, 500, 1,000 mg/kg/day in diet for 24 mo, Dose: 0, 30, 100, 500, 1,000 mg/kg/day in diet for 24 mo, Tumor Site: Type of Lesion: Testis: Interstitial cell tumors (1, 4, 2, 4, 9; Significant at highest dose)", "result": "active; positive (study details not given in source; purity 96.2%)"}
    ]},
    {"smiles": "O=C/C=C/c1ccccc1", "values": [
      {"measurement": "carcinogen call", "setting": "Species: MOUSE, Strain/Sex: B6C3F1/MALE, FEMALE (50/GROUP), Route: ORAL, Dose: 0, 1000, 2100, 4100 PPM MICROENCAPSULATED IN DIET FOR 2 YR (STUDY DURATION: 2 YR), Dose: 0, 1000, 2100, 4100 PPM MICROENCAPSULATED IN DIET FOR 2 YR (STUDY DURATION: 2 YR), Tumor Site: Type of Lesion: NONE", "result": "inactive; negative"},
      {"measurement": "carcinogen call", "setting": "Species: RAT, Strain/Sex: F344/N/MALE, FEMALE (50/GROUP), Route: ORAL, Dose: 0, 1000, 2100, 4100 PPM MICROENCAPSULATED IN DIET FOR 2 YR (STUDY DURATION: 2 YR), Dose: 0, 1000, 2100, 4100 PPM MICROENCAPSULATED IN DIET FOR 2 YR (STUDY DURATION: 2 YR), Tumor Site: Type of Lesion: NONE", "result": "inactive; negative"}
    ]}
  ]
}
